The source of these data is patent US12286437B2, “Cardiac sarcomere inhibitors” (Cytokinetics, Inc., priority 2021, dated 2025).

Structures are written as SMILES.

The nature of data set [1]: Dog single dose pharmacokinetics. Format: in vivo, beagle dogs. The settings on record: male, beagle, plasma, IV, read-out: t½ (converted). Here is the method:
Non-naïve male beagle dogs (8 months-3 years of age, body weight 8-13 kg) were used in this study. All animals for IV administration had free access to food and water; all animals for PO were fasted overnight prior to dosing and were fed approximately 6 hours after dosing. For the animals in PO group, pentagastrin (6.0 μg/kg, i.m.) was administrated 20 minutes before dosing PO formulation and 1.5 hours after the first pentagastrin dosing. The dosing volume was 0.024 mL/kg, the concentration was 250 μg/mL in DMSO/1 N NaOH/PBS. 10 mL of 0.001 N HCl was used to wash the gavage catheter for each animal. The IV dose solution was prepared in 10% DMA/50% PG/40% HPβCD solution (40% w/v aqueous HPβCD) at a concentration of 1.0 mg/mL. The oral dose suspension was prepared by suspending the compound in 0.5% HPMC/0.1% Tween 80 in distilled water at a concentration of 0.2 mg/mL. Concentrations of IV and PO doses were measured at the end of the study. PK parameters were calculated using the nominal dose values if the measured values were within 20% of the nominal values. Blood samples were collected by venipuncture of peripheral veins except the dosing vein at pre-dose, 5 15, 30 min, 1, 2, 4, 6, 8, 24 and 48 h post-dose. Blood samples were centrifuged and resultant plasma was frozen for bioanalysis. Plasma samples were stored at −80° C. before analysis. Plasma samples were analyzed for compound concentrations using the LC/MS/MS method. Briefly, a 50 μL aliquot of each plasma sample was mixed with 100 μL of acetonitrile that contained an internal standard. The mixture was vortexed and centrifuged. Ten (10) μL of the resulting solution was injected onto a reverse-phase C18 column and the resultant peaks detected on a LC/MS/MS equipped with a turbo ionspray ionization source. Sample concentrations below the limit of quantification (BLQ) were treated as zero for PK calculations. PK parameters were estimated from individual animals using noncompartmental analysis of the concentration-time data (Phoenix WinNonLin software, version 64; Pharsight, Mountain View, CA). The elimination rate constant (k) was calculated as the absolute value of the slope of the linear regression of logarithm (log) of the concentration versus time for the last three data points of the concentration-time profiles. Apparent elimination half-life (t1/2) values were calculated as ln(2)/k. Area under the concentration-time curve (AUC) values were estimated using linear trapezoidal method. AUCt values were calculated from the dosing time to the last measurable concentration. AUC∞ values were calculated as the sum of the corresponding AUCt and the ratio of the last detectable concentration divided by k. Plasma clearance (CL) was calculated from Dose/AUC∞. Mean resident time extrapolated to infinity (MRT∞) was estimated by moment analysis. Vss was calculated from MRT∞×CL. Maximum concentration (Cmax) and time to reach Cmax (tmax) were recorded as observed. As this was a cross-over study, bioavailability was calculated dAUC∞,po/dAUC∞,iv×100% where dAUC was the dose normalized AUC value from the same animal given IV and PO dose. Data for compounds tested are provided in Table D. Compounds tested were prepared in accordance with the synthetic procedures described herein.

Data set [2] is described as follows: Projected single-dose CL and Vss values in humans (allometric scaling of mouse, rat, dog, monkey IV PK). As to conditions: human, projected by allometric scaling from single-dose IV PK. How it is done: Allometric scaling for the prediction of human Clearance and Volume of Distribution was based on interspecies simple allometric scaling of mouse, rat, dog, and cynomolgus monkey intravenous pharmacokinetic parameters (Boxenbaum, J Pharmacokinet Biopharm 10:201-27, 1982). Prediction of human CL was performed by extrapolating pre-clinical species' plasma intravenous clearance. The ‘rule of exponents’ (Mahmood & Balian, Life Sci 59:579-85, 1996) was examined in this prediction, where it has been proposed that, when the exponent of simple allometry lies between […] and 0.99, a correction factor based on Maximum Life Span (MLP) of this species can be applied and, when the exponent of simple allometry is greater than 1.0, a correction factor based on Brain Weight (BrW) can be applied, or a protein binding correction can be applied when available. In a similar manner, simple allometric scaling was employed to predict human Volume of Distribution. This method has been used successfully for varied drugs (Ward & Smith, Drug Metab Dispos 32:612-19, 2004; McGinnity et al., Curr Drug Metab 8:463-79, 2007).

For data set [3], the system named is bovine cardiac myofibrils. The data set is described as follows: Myofibril assay (ATPase activity of skinned bovine cardiac myofibrils, PK/LDH-coupled). Format: biochemical. The settings on record: inhibition of steady-state ATPase of bovine cardiac myofibrils; CaCl2 for 50% or 75% activation. How it is done:
To evaluate the effect of compounds on the ATPase activity of full-length cardiac myosin in the context of the native sarcomere, skinned myofibril assays were performed. Bovine cardiac myofibrils were obtained by homogenizing bovine cardiac left ventricular tissue in the presence of a detergent such as triton X-100. Such treatment removes membranes and a majority of the soluble cytoplasmic proteins but leaves intact the cardiac sarcomeric acto-myosin apparatus. Myofibril preparations retain the ability to hydrolyze ATP in a Ca^2+ regulated manner. ATPase activities of such myofibril preparations in the presence and absence of compounds were assayed at Ca^2+ concentrations activating to a defined fraction of the maximal rate (i.e., […], 75%). Small molecule agents were assessed for their ability to inhibit the steady-state ATPase activity of bovine cardiac myofibrils using pyruvate kinase and lactate dehydrogenase (PK/LDH)-coupled enzyme system. This assay regenerates myosin-produced ADP into ATP by oxidizing NADH, producing an absorbance change at 340 nm. Prior to testing small molecule agents, the bovine cardiac myofibrils were assessed for their calcium responsiveness and the calcium concentration that achieves either a 50% (pCa50) or 75% (pCa75) activation of the myofibril system was chosen as the final condition for assessing the inhibitory activity of the small molecule agents. All enzymatic activity was measured in a buffered solution containing 12 mM PIPES (piperazine-N,N′-bis(2-ethanesulfonic acid), 2 mM magnesium chloride at pH 6.8 (PM 12 buffer). Final assay conditions were 1 mg/mL of bovine cardiac myofibrils, 4 U/mL pyruvate kinase, 6 U/mL lactate dehydrogenase, 50 μM ATP, 0.1 mg/mL BSA (bovine serum albumin), 10 ppm antifoam, 1 mM DTT, 0.5 mM NADH, 1.5 mM PEP, 0.6 mM EGTA, and an amount of CaCl2 sufficient to achieve either 50% or 75% activation of the myofibril ATPase activity. Results for compounds tested are provided in Table A. Compounds tested were prepared in accordance with the synthetic procedures described herein.

Data set [4] concerns the target T1, CYP3A4 (Homo sapiens, UniProt P08684).
T1 construct: Pooled human microsomes and selective CYP probe substrates were used; from tissue; host or cells: pooled human liver microsomes
The data set is described as follows: Time-dependent inhibition of CYP3A4 in human liver microsomes (testosterone and midazolam probes). As to conditions: for (% Activity NADPH T0)/(% Activity NADPH T30): fold change. Format: in vitro ADME. How it is done: An assessment of the time-dependent Inhibitory Potential of the test compounds against Principal Human Cytochrome P450 Isozymes using Human Liver Microsomes was also carried out using standard methods (Grimm et al, Drug Metab. Dispos., July; 37(7):1355-70. doi: 10.1124/dmd.109.026716, 2009). Pooled human microsomes and selective CYP probe substrates were used for in vitro assessment of test compounds at 25 and 50 μM as time-dependent inhibitors of […] human hepatic cytochrome P450 isozymes (CYP1A2, 2B6, 2C9, 2C19, 2D6, and 3A4). LC-MS/MS was used to quantify metabolite formation. The inhibition of each P450 enzyme in human liver microsomes was measured as the percentage decrease in the activity of marker metabolite formation as measured by LC-MS/MS compared to non-inhibited controls (=100% activity) at time zero and after 30 minutes incubation. The occurrence of any time dependent inhibition was then expressed as the fold change in enzyme activity at time zero relative to the activity after 30 minutes incubation.

T1 sequence (P08684 whole entry): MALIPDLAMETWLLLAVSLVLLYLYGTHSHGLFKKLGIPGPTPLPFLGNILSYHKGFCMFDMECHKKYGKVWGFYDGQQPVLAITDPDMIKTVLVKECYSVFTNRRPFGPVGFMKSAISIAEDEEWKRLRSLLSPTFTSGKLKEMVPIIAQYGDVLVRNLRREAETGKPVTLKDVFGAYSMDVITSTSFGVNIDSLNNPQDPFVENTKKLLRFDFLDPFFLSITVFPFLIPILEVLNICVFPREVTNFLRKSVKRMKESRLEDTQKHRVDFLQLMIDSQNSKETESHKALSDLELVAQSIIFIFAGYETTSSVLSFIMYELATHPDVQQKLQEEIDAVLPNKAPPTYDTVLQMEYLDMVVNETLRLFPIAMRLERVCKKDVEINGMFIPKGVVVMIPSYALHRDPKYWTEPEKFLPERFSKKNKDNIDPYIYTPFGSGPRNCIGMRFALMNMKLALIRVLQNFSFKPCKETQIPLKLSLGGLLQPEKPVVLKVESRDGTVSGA

With `CC(=O)N1CC2(C1)C(=O)N(c1ccc(C#N)cc1F)CC(=O)N2Cc1ccc(C(F)(F)F)cc1` [Comparator D, 4-(2-acetyl-6,9-dioxo-5-(4-(trifluoromethyl)benzyl)-2,5,8-triazaspiro[3.5]nonan-8-yl)-3-fluorobenzonitrile], in data set [1], the half-life is 23.7 h. Further, in data set [2], the “Projected CL” value is reported as 0.96 mL/min/kg, the “Projected Vss” value is on record as 5.16 L/kg and the “Projected t½” value amounted to 62 h. Besides, in data set [3], the “CDMF IC15” value is 1.1 µM.

As to `O=CN1CC2(C1)C(=O)N([C@H]1CC[C@H](C(F)F)CC1)CC(=O)N2Cc1ccc(C(F)(F)F)cc1` [Comparator E, 8-((1r,4r)-4-(difluoromethyl)cyclohexyl)-6,9-dioxo-5-(4-(trifluoromethyl)benzyl)-2,5,8-triazaspiro[3.5]nonane-2-carbaldehyde], in data set [1], the half-life is 33.1 h. Also, in data set [2], the “Projected CL” value was 1.2 mL/min/kg, the “Projected Vss” value is 5.5 L/kg and the “Projected t½” value came out at 51.7 h. Also, the “CDMF IC15” value in data set [3] amounted to 1.3 µM.

Take `O=CN1CC2(C1)C(=O)N(c1ccc(F)cc1F)CC(=O)N2Cc1ccc(Cl)cc1` [Comparator A, 5-(4-chlorobenzyl)-8-(2,4-difluorophenyl)-6,9-dioxo-2,5,8-triazaspiro[3.5]nonane-2-carbaldehyde, reference compound]: in data set [1], the half-life was 39.2 h. Further, in data set [2], the “Projected CL” value came to 1.44 mL/min/kg and the “Projected t½” value is listed as 38.7 h. In data set [3], the “CDMF IC15” value amounted to 1.8 µM.

`O=C1[C@H](C2COC2)N(Cc2ccc(C(F)(F)F)cc2)C(=O)CN1c1ncc(Cl)cc1F` [Comparator C, (S)-1-(5-chloro-3-fluoropyridin-2-yl)-3-(oxetan-3-yl)-4-(4-(trifluoromethyl)benzyl)piperazine-2,5-dione, reference compound]: in data set [1], the half-life is 14.7 h. For the same compound, the “Projected CL” value in data set [2] was determined as 3.9 mL/min/kg. Also, the “Projected Vss” value in data set [2] stood at 13.9 L/kg. The “Projected t½” value in data set [2] is reported as 41 h. The “CDMF IC15” value in data set [3] came to 1.1 µM. Besides, the “(% Activity NADPH T0)/(% Activity NADPH T30)” value in data set [4] (CYP3A4-M (midazolam probe substrate), 25 μM) worked out at 1.6; in data set [4] (CYP3A4-M (midazolam probe substrate), 50 μM), 1.7; in data set [4] (CYP3A4-T (testosterone probe substrate), 25 μM), 1.8; in data set [4] (CYP3A4-T (testosterone probe substrate), 50 μM), 1.8. The “change in fold activity of 3A4 (time dependent inhibition)” value in data set [4] (both midazolam and testosterone probes, 25 and 50 μM) was over 1.5 fold.
